According to article PMC7918878 (Molecules, 2021):
Several values for one entry are separate records, joined by “and”; a condition that tells them apart may be missing. Identical values can stand only once. Like-named read-outs stand apart in the source and are kept apart here.

What was measured:
[1] = molecular target: BuChE obtained from equine serum (EqBuChE) (Equus caballus, UniProt P81908); experiment: biochemical; assay type: biochemical; details: for IC50: mean ± SD, n = three independent experiments, BTCh 40 µM; for fold less active against BuChE than 2d: compared with 2-chlorobenzylidene analogue 2d
[2] = molecular target: AChE isolated from electric eel (EeAChE) (Electrophorus electricus, UniProt O42275); experiment: biochemical; details: for Selectivity BuChE/AChE: SI = ratio of IC50 for BuChE/IC50 for AChE, >1 means stronger inhibition of AChE; for IC50: mean ± SD, n = three independent experiments, ATCh 40 µM
HepG2 cells = details: cited from earlier work
eeAChE = eeAChE (Electrophorus electricus, UniProt O42275); experiment: Type of inhibition, Lineweaver–Burk plot and nonlinear regression; assay type: biochemical
Description: The type of inhibition could be distinguished using a Lineweaver–Burk plot and corresponding comparison of two kinetic parameters: Michaelis constant (KM) and maximum velocity (Vm) of uninhibited and inhibited reaction. […].
. The dependence absorbance vs. time was observed and the reaction rate was calculated. All measurements were carried out in duplicate and the average values of reaction rate were used for the construction of the Lineweaver–Burk plot. Furthermore, the dependencies vs. concentration of ATCh in absence and presence of inhibitor 2l were analyzed by nonlinear regression using GraphPad Prism 9.0.1 for Windows (GraphPad Software, San Diego, CA, USA, www.graphpad.com). From obtained equations of regression curves in the Lineweaver–Burk plot, the values of Michaelis constant (KM) and maximum velocity (Vm) were calculated. […]. Based on all obtained results, the type of inhibition was identified.

[3] = nonlinear regression, mixed model inhibition

Chain of eeAChE (O42275 24-633): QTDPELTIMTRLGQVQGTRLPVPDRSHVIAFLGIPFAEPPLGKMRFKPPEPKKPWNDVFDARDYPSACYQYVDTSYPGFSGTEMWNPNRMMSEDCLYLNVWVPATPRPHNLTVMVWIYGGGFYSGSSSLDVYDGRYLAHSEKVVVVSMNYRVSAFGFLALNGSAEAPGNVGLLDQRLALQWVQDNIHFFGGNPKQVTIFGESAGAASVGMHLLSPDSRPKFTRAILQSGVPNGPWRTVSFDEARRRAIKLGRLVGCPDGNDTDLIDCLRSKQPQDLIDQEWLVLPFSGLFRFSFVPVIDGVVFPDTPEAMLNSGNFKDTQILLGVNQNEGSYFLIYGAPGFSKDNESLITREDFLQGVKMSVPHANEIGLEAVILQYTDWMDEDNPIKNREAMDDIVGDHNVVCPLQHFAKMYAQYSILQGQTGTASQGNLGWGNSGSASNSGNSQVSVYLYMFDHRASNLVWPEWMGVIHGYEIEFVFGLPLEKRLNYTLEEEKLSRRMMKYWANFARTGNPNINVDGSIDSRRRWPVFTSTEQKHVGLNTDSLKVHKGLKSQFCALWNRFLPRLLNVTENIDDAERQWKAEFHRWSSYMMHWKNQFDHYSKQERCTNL
Chain of AChE isolated from electric eel (EeAChE) (O42275 24-633): as above
Chain of BuChE obtained from equine serum (EqBuChE) (P81908 whole entry): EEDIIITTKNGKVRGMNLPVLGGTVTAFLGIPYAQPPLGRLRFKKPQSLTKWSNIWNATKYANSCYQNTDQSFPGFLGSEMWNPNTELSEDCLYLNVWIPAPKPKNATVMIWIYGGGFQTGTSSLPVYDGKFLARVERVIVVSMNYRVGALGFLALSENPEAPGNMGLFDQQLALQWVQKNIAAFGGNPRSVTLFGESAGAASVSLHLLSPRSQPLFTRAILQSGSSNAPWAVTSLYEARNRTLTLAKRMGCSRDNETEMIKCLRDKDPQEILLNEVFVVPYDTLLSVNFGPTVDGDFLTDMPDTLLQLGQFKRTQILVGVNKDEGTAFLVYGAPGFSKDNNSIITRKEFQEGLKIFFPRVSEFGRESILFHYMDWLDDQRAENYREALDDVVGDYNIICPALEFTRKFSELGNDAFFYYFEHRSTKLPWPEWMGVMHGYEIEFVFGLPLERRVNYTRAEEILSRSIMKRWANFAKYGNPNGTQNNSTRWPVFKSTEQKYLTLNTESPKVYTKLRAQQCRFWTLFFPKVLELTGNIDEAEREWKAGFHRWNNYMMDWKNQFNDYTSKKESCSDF

| Compound | IC50 ([1]; read-out: IC50 BuChE) | Selectivity BuChE/AChE [2] | IC50 [2] [µM] | IC50 (HepG2 cells) [µM] | fold less active against BuChE than 2d [1] | IC50 ([1]; IC50 BuChE) [µM] | Type of inhibition (eeAChE; Lineweaver–Burk plot, KM and Vm, ATCh 20–80 µM, inhibitor 10–40 µM) | Ki (eeAChE; [3]) [µM] | alpha (eeAChE; [3]) | improved activity against BuChE ([1]; fold, 2k vs. 2o) [×] |
| --- | --- | --- | --- | --- | --- | --- | --- | --- | --- | --- |
| O=C(NN=C1CCCC1)c1ccc(C(F)(F)F)cc1 [3b] | 200 ± 13.2 µM | 2.9 | 69.2 ± 1 | > 100 | – | – | – | – | – | – |
| O=C(NN=Cc1ccccc1C(F)(F)F)c1ccc(C(F)(F)F)cc1 [2q, 4-(Trifluoromethyl)-N’-[2-(trifluoromethyl)benzylidene]benzohydrazide] | 19.1 ± 0.5 µM | 0.4 | 50 ± 1.6 | – | – | – | – | – | – | – |
| O=C(NN=Cc1cccc(Br)c1)c1ccc(C(F)(F)F)cc1 [2n, N’-(3-Bromobenzylidene)-4-(trifluoromethyl)benzohydrazide] | 166.3 ± 0.8 µM | 1.7 | 96.9 ± 1.3 | – | – | – | – | – | – | – |
| COc1ccc(/C=N/NC(=O)c2ccc(C(F)(F)F)cc2)cc1 [2j] | 279 ± 2.9 µM | 2.6 | 109 ± 2.2 | > 100 | – | – | – | – | – | – |
| O=C(N/N=C/c1cc(Cl)ccc1O)c1ccc(C(F)(F)F)cc1 [2h] | 287 ± 12.6 µM | 2.1 | 138 ± 3 | > 100 | – | – | – | – | – | – |
| Cc1ccc(C(=O)NN=Cc2ccc(C(F)(F)F)cc2)cc1 [2u, 4-Methyl-N’-[4-(trifluoromethyl)benzylidene]benzohydrazide] | 245 ± 7 µM | 3.3 | 75.3 ± 1.5 | – | – | – | – | – | – | – |
| O=C(N/N=C/c1ccc(Br)cc1)c1ccc(C(F)(F)F)cc1 [2k] | 342 ± 11.3 µM | 5.5 | 62.1 ± 0.02 | > 100 | approximately 3 fold | – | – | – | – | – |
| O=C(N/N=C/c1ccccc1Cl)c1ccc(C(F)(F)F)cc1 [2d] | – | 0.5 | 128 ± 10 | > 100 | – | 63.6 ± 0.9 | – | – | – | – |
| O=C(N/N=C/c1ccc([N+](=O)[O-])cc1)c1ccc(C(F)(F)F)cc1 [2m] | 190.6 ± 1.1 µM | 3.2 | 60 ± 0.4 | > 100 | – | – | – | – | – | – |
| Cc1ccc(/C=N/NC(=O)c2ccc(C(F)(F)F)cc2)cc1 [2i] | 253 ± 9.6 µM | 2.8 | 91.4 ± 6.2 | > 100 | – | – | – | – | – | – |
| O=C(N/N=C/c1cccc(Cl)c1)c1ccc(C(F)(F)F)cc1 [2c] | 261 ± 40.7 µM | 3.4 | 77.1 ± 0.03 | > 100 | – | – | – | – | – | – |
| O=C(N/N=C/c1ccccc1O)c1ccc(C(F)(F)F)cc1 [2g] | 881.1 ± 8 µM | 18.6 | 47.4 ± 1.8 | > 100 | – | – | – | – | – | – |
| O=C(NN=Cc1ccc(C(F)(F)F)cc1)c1ccc(C(F)(F)F)cc1 [2l, 4-(Trifluoromethyl)-N’-[4-(trifluoromethyl)benzylidene]benzohydrazide] | 175 ± 8.3 µM | 3.7 | 46.8 ± 2.1 | > 100 | approximately 3 fold | – | mixed type of inhibition | 54.6 | 1.28 | – |
| CC(C)=NNC(=O)c1ccc(C(F)(F)F)cc1 [3a] | 424 µM | 6.1 | 69.7 ± 5.2 | > 100 | – | – | – | – | – | – |
| O=C(NN=Cc1ccccc1[N+](=O)[O-])c1ccc(C(F)(F)F)cc1 [2s, N’-(2-Nitrobenzylidene)-4-(trifluoromethyl)benzohydrazide] | 93.1 ± 4.9 µM | 1.6 | 59.7 ± 5.8 | – | – | – | – | – | – | – |
| O=C(N/N=C/c1ccc(O)cc1)c1ccc(C(F)(F)F)cc1 [2e] | 229 ± 14.5 µM | 2.3 | 102 ± 3.8 | > 100 | – | – | – | – | – | – |
| O=C(NN=Cc1cccc([N+](=O)[O-])c1)c1ccc(C(F)(F)F)cc1 [2r, N’-(3-Nitrobenzylidene)-4-(trifluoromethyl)benzohydrazide] | 133 ± 10.2 µM | 1.6 | 81.3 ± 2.6 | – | – | – | – | – | – | – |
| O=C(N/N=C/c1ccccc1)c1ccc(C(F)(F)F)cc1 [2a] | 651 ± 31.5 µM | – | 75.9 ± 1.6 | > 100 | – | – | – | – | – | – |
| NNC(=O)c1ccc(C(F)(F)F)cc1 [compound 1, 4-(Trifluoromethyl)benzohydrazide] | – | – | – | > 100 | – | – | – | – | – | – |
| O=C(NN=C1CCCCC1)c1ccc(C(F)(F)F)cc1 [3c] | 74.7 ± 2.7 µM | 1.2 | 61.2 ± 1.3 | > 100 | – | – | – | – | – | – |
| O=C(N/N=C/c1cccc(O)c1)c1ccc(C(F)(F)F)cc1 [2f] | 250 ± 7.5 µM | 3.5 | 70.4 ± 2.8 | > 100 | – | – | – | – | – | – |
| O=C(NN=Cc1ccc(C(F)(F)F)cc1)c1ccccc1 [2t, N’-[4-(Trifluoromethyl)benzylidene]benzohydrazide] | 189.8 ± 1.7 µM | 3.0 | 62.9 ± 0.8 | – | – | – | – | – | – | – |
| O=C(NN=Cc1ccccc1Br)c1ccc(C(F)(F)F)cc1 [2o, N’-(2-Bromobenzylidene)-4-(trifluoromethyl)benzohydrazide] | 54.2 ± 0.1 µM | 0.9 | 62.6 ± 3.2 | – | – | – | – | – | – | 6.3 |
| O=C(N/N=C/c1ccc(Cl)cc1)c1ccc(C(F)(F)F)cc1 [2b] | 254 ± 3.3 µM | 2.9 | 88.5 ± 1.4 | > 100 | – | – | – | – | – | – |
| O=C(NN=Cc1cccc(C(F)(F)F)c1)c1ccc(C(F)(F)F)cc1 [2p, 4-(Trifluoromethyl)-N’-[3-(trifluoromethyl)benzylidene]benzohydrazide] | 63.6 ± 2.8 µM | 1.3 | 49.9 ± 1.4 | – | – | – | – | – | – | – |
| CC12CCC(CC1=NNC(=O)c1ccc(C(F)(F)F)cc1)C2(C)C (centres unmarked) [3d] | 57 µM and 57.2 µM | 1.0 | 59.3 ± 1.8 | > 100 | – | – | – | – | – | – |
